Measurements: PubChem BioAssay (NCI)
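GI50: concentration for 50% inhibition of growth. TGI denotes the concentration required for complete inhibition of growth.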

Assays:
Experiment in all cases: growth of human tumour cells (NCI), 384-well format
SNB-19 CNS = system: SNB-19 CNS
MOLT-4 leukemia = system: MOLT-4 leukemia
HS 578T breast = system: HS 578T breast
DU-145 prostate = system: DU-145 prostate
SK-MEL-5 melanoma = system: SK-MEL-5 melanoma
MALME-3M melanoma = system: MALME-3M melanoma
NCI-H460 NSCLC = system: NCI-H460 NSCLC
TK-10 renal = system: TK-10 renal
RPMI-8226 leukemia = system: RPMI-8226 leukemia
KM12 colon = system: KM12 colon
COLO 205 colon = system: COLO 205 colon
MDA-MB-468 breast = system: MDA-MB-468 breast
SN12C renal = system: SN12C renal
NCI-H23 lung = system: NCI-H23 lung
M14 melanoma = system: M14 melanoma
A549 NSCLC = system: A549 NSCLC
CCRF-CEM leukemia = system: CCRF-CEM leukemia
MCF7 breast = system: MCF7 breast
SR leukemia = system: SR leukemia
NCI-H522 lung = system: NCI-H522 lung
SW-620 colon = system: SW-620 colon
HL-60(TB) leukemia = system: HL-60(TB) leukemia
A498 renal = system: A498 renal
PC-3 prostate = system: PC-3 prostate
OVCAR-8 ovarian = system: OVCAR-8 ovarian
SF-539 CNS = system: SF-539 CNS
SK-OV-3 ovarian = system: SK-OV-3 ovarian
MDA-MB-435 melanoma = system: MDA-MB-435 melanoma
SNB-75 CNS = system: SNB-75 CNS
LOX IMVI melanoma = system: LOX IMVI melanoma
K-562 leukemia = system: K-562 leukemia
ACHN renal = system: ACHN renal
SK-MEL-28 melanoma = system: SK-MEL-28 melanoma
UACC-257 melanoma = system: UACC-257 melanoma
UO-31 renal = system: UO-31 renal
NCI-H322M lung = system: NCI-H322M lung
MDA-MB-231 breast = system: MDA-MB-231 breast
HCC-2998 colon = system: HCC-2998 colon
OVCAR-3 ovarian = system: OVCAR-3 ovarian
EKVX NSCLC = system: EKVX NSCLC
T-47D breast = system: T-47D breast
HOP-62 NSCLC = system: HOP-62 NSCLC
NCI/ADR-RES ovarian = system: NCI/ADR-RES ovarian
IGROV1 ovarian = system: IGROV1 ovarian
BT-549 breast = system: BT-549 breast
SF-268 CNS = system: SF-268 CNS
SF-295 CNS = system: SF-295 CNS
OVCAR-4 ovarian = system: OVCAR-4 ovarian
HT29 colon = system: HT29 colon
786-0 renal = system: 786-0 renal
HOP-92 NSCLC = system: HOP-92 NSCLC
RXF 393 renal = system: RXF 393 renal
HCT-15 colon = system: HCT-15 colon
UACC-62 melanoma = system: UACC-62 melanoma
OVCAR-5 ovarian = system: OVCAR-5 ovarian
CAKI-1 renal = system: CAKI-1 renal
NCI-H226 lung = system: NCI-H226 lung

How did the GI50 (SNB-19 CNS) turn out when `C[C@@H](CN1CC(=O)NC(=O)C1)N1CC(=O)NC(=O)C1` was run?
The GI50 was 96100 nM.

And the GI50 (MOLT-4 leukemia)?
The GI50 was 5070 nM.

And the TGI (MOLT-4 leukemia)?
Its TGI is 17200 nM.

What about the GI50 (HS 578T breast) of the same compound?
Its GI50 is 21200 nM.

And the GI50 (DU-145 prostate)?
The GI50 was 52400 nM.

What about the GI50 (SK-MEL-5 melanoma) of the same compound?
The GI50 was 74800 nM.

What about the GI50 (MALME-3M melanoma) of the same compound?
Its GI50 is 34600 nM.

And the GI50 (NCI-H460 NSCLC)?
Its GI50 is 19700 nM.

And the GI50 (TK-10 renal)?
The GI50 was 68000 nM.

And the GI50 (RPMI-8226 leukemia)?
The GI50 was 3650 nM.

And the TGI (RPMI-8226 leukemia)?
The TGI was 19700 nM.

And the GI50 (KM12 colon)?
The GI50 was 91700 nM.

What about the GI50 (COLO 205 colon) of the same compound?
Its GI50 is 10600 nM.

And the TGI (COLO 205 colon)?
The TGI was 27800 nM.

What about the GI50 (MDA-MB-468 breast) of the same compound?
The GI50 was 29100 nM.

And the TGI (MDA-MB-468 breast)?
Its TGI is 57900 nM.

And the GI50 (SN12C renal)?
Its GI50 is 74400 nM.

What about the GI50 (NCI-H23 lung) of the same compound?
Its GI50 is 71800 nM.

What about the GI50 (M14 melanoma) of the same compound?
Its GI50 is 55700 nM.

And the GI50 (A549 NSCLC)?
The GI50 was 10100 nM.

What about the GI50 (CCRF-CEM leukemia) of the same compound?
Its GI50 is 13700 nM.

And the TGI (CCRF-CEM leukemia)?
The TGI was 29400 nM.

And the GI50 (MCF7 breast)?
The GI50 was 77700 nM.

What about the GI50 (SR leukemia) of the same compound?
The GI50 was 2150 nM.

And the TGI (SR leukemia)?
The TGI was 4680 nM.

What about the GI50 (NCI-H522 lung) of the same compound?
The GI50 was 53900 nM.

And the GI50 (SW-620 colon)?
The GI50 was 83400 nM.

And the GI50 (HL-60(TB) leukemia)?
Its GI50 is 4320 nM.

And the TGI (HL-60(TB) leukemia)?
The TGI was 18400 nM.

Which results are given for `CN1CCN(c2cc(C(=O)Nc3cc4cc(-c5cnn(C)c5)ccc4cn3)ccn2)CC1`?
GI50 (A498 renal): 32.8 nM; TGI (A498 renal): 158 nM; GI50 (SNB-19 CNS): 41.6 nM; TGI (SNB-19 CNS): 10200 nM; GI50 (PC-3 prostate): 76.7 nM; TGI (PC-3 prostate): 514 nM; GI50 (OVCAR-8 ovarian): 72.4 nM; TGI (OVCAR-8 ovarian): 302 nM; GI50 (MOLT-4 leukemia): 18 nM; TGI (MOLT-4 leukemia): 33 nM; GI50 (SF-539 CNS): 121 nM; TGI (SF-539 CNS): 322 nM; GI50 (HS 578T breast): 38.9 nM; TGI (HS 578T breast): 152 nM; GI50 (SK-OV-3 ovarian): 28.1 nM; TGI (SK-OV-3 ovarian): 112 nM; GI50 (MDA-MB-435 melanoma): 86.9 nM; TGI (MDA-MB-435 melanoma): 283 nM; GI50 (DU-145 prostate): 50.2 nM; TGI (DU-145 prostate): 282 nM; GI50 (SNB-75 CNS): 105 nM; TGI (SNB-75 CNS): 261 nM; GI50 (SK-MEL-5 melanoma): 22.9 nM; TGI (SK-MEL-5 melanoma): 92.2 nM; GI50 (MALME-3M melanoma): 84.6 nM; TGI (MALME-3M melanoma): 213 nM; GI50 (NCI-H460 NSCLC): 51 nM; TGI (NCI-H460 NSCLC): 190 nM; GI50 (LOX IMVI melanoma): 51.7 nM; TGI (LOX IMVI melanoma): 172 nM; GI50 (TK-10 renal): 116 nM; TGI (TK-10 renal): 442 nM; GI50 (K-562 leukemia): 52.8 nM; TGI (K-562 leukemia): 345 nM; GI50 (ACHN renal): 47.5 nM; TGI (ACHN renal): 219 nM; GI50 (RPMI-8226 leukemia): 24.5 nM; TGI (RPMI-8226 leukemia): 49.1 nM; GI50 (SK-MEL-28 melanoma): 125 nM; TGI (SK-MEL-28 melanoma): 259 nM; GI50 (UACC-257 melanoma): 36.3 nM; TGI (UACC-257 melanoma): 107 nM; GI50 (KM12 colon): 32.9 nM; TGI (KM12 colon): 209 nM; GI50 (COLO 205 colon): 26 nM; TGI (COLO 205 colon): 64.1 nM; GI50 (UO-31 renal): 158 nM; TGI (UO-31 renal): 3160 nM; GI50 (NCI-H322M lung): 68.2 nM; TGI (NCI-H322M lung): 858 nM; GI50 (MDA-MB-231 breast): 87 nM; TGI (MDA-MB-231 breast): 654 nM; GI50 (HCC-2998 colon): 105 nM; TGI (HCC-2998 colon): 287 nM; GI50 (OVCAR-3 ovarian): 30.2 nM; TGI (OVCAR-3 ovarian): 82.5 nM; GI50 (EKVX NSCLC): 62.5 nM; TGI (EKVX NSCLC): 1600 nM; GI50 (MDA-MB-468 breast): 26.8 nM; TGI (MDA-MB-468 breast): 53.9 nM; GI50 (T-47D breast): 67 nM; TGI (T-47D breast): 340 nM; GI50 (HOP-62 NSCLC): 31.8 nM; TGI (HOP-62 NSCLC): 145 nM; GI50 (NCI/ADR-RES ovarian): 71.4 nM; TGI (NCI/ADR-RES ovarian): 244 nM; GI50 (IGROV1 ovarian): 52.1 nM; TGI (IGROV1 ovarian): 255 nM; GI50 (SN12C renal): 55.3 nM; TGI (SN12C renal): 228 nM; GI50 (NCI-H23 lung): 18.9 nM; TGI (NCI-H23 lung): 47.5 nM; GI50 (BT-549 breast): 28.3 nM; TGI (BT-549 breast): 71.4 nM; GI50 (SF-268 CNS): 142 nM; TGI (SF-268 CNS): 438 nM; GI50 (SF-295 CNS): 99.8 nM; TGI (SF-295 CNS): 314 nM; GI50 (M14 melanoma): 75.9 nM; TGI (M14 melanoma): 221 nM; GI50 (OVCAR-4 ovarian): 58.9 nM; TGI (OVCAR-4 ovarian): 187 nM; GI50 (HT29 colon): 138 nM; TGI (HT29 colon): 286 nM; GI50 (A549 NSCLC): 30.7 nM; TGI (A549 NSCLC): 129 nM; GI50 (CCRF-CEM leukemia): 25.6 nM; TGI (CCRF-CEM leukemia): 53.5 nM; GI50 ([…]-0 renal): 154 nM; TGI (786-0 renal): 316 nM; GI50 (MCF7 breast): 55.9 nM; TGI (MCF7 breast): 221 nM; GI50 (SR leukemia): 19.5 nM; TGI (SR leukemia): 40.8 nM; GI50 (HOP-92 NSCLC): 39.6 nM; TGI (HOP-92 NSCLC): 398 nM; GI50 (RXF 393 renal): 118 nM; TGI (RXF 393 renal): 245 nM; GI50 (HCT-15 colon): 39.1 nM; TGI (HCT-15 colon): 157 nM; GI50 (UACC-62 melanoma): 27.8 nM; TGI (UACC-62 melanoma): 88.7 nM; GI50 (NCI-H522 lung): 26.6 nM; TGI (NCI-H522 lung): 65.5 nM; GI50 (SW-620 colon): 33.6 nM; TGI (SW-620 colon): 1580 nM; GI50 (OVCAR-5 ovarian): 167 nM; TGI (OVCAR-5 ovarian): 640 nM; GI50 (HL-60(TB) leukemia): 99.4 nM; TGI (HL-60(TB) leukemia): 219 nM; GI50 (CAKI-1 renal): 35.3 nM; TGI (CAKI-1 renal): 210 nM; GI50 (NCI-H226 lung): 131 nM; TGI (NCI-H226 lung): 370 nM
